# The NIST ThermoML archive (doi:10.1016/j.jct.2015.04.021)
# ± gives the expanded uncertainty stated by the source.
# Assay: xn = mol fraction of the nth substance listed
# Settings: 101.3 kPa, Liquid, Pycnometric method
SMILES,"mass density (303.15 K, x1 = 0.75) [kg/m3]","mass density (303.15 K, x1 = 0.8) [kg/m3]","mass density (303.15 K, x1 = 0.833) [kg/m3]","mass density (313.15 K, x1 = 0.75) [kg/m3]","mass density (313.15 K, x1 = 0.8) [kg/m3]","mass density (313.15 K, x1 = 0.833) [kg/m3]","mass density (323.15 K, x1 = 0.75) [kg/m3]","mass density (323.15 K, x1 = 0.8) [kg/m3]","mass density (323.15 K, x1 = 0.833) [kg/m3]","mass density (333.15 K, x1 = 0.75) [kg/m3]","mass density (333.15 K, x1 = 0.8) [kg/m3]","mass density (333.15 K, x1 = 0.833) [kg/m3]"
OCc1ccco1 [2-hydroxymethylfuran] + C[N+](C)(C)CCO.[Cl-],1131.8 ± 1.3,1131.5 ± 1.3,1130.9 ± 1.3,1125.2 ± 1.3,1124.3 ± 1.3,1123.8 ± 1.3,1118.6 ± 1.3,1117.1 ± 1.3,1116.6 ± 1.3,1112 ± 1.3,1109.9 ± 1.3,1109.5 ± 1.3
CC(=O)CCC(=O)O [4-oxopentanoic acid] + C[N+](C)(C)CCO.[Cl-],1134.6 ± 1.1,1134.1 ± 1.1,1133.7 ± 1.1,1127.6 ± 1.1,1127.3 ± 1.1,1127 ± 1.1,1120.9 ± 1.2,1120.4 ± 1.2,1120.2 ± 1.2,1113.8 ± 1.2,1113.1 ± 1.2,1113 ± 1.2
